Molecular target: T1, HCV RNA Polymerase, recombinant NS5B with C-terminal 21 amino acid deletion, genotype 1a strain H77 (Hepatitis C virus genotype 1a, UniProt P27958)
T1 construct: fused on or other part: C-terminal 6His-tag
Experiment: In vitro HCV RNA-dependent RNA polymerase inhibition assay, genotype 1a C-terminally truncated (delta21) enzyme
Assay type: biochemical, HCV genotype 1a
Conditions: genotype 1a delta21 NS5B enzyme; read-out: IC50 in delta-21 1a enzyme inhibition assay
Source text: Incorporation of [^33P]-GMP into RNA was followed by absorption of the biotin labelled RNA polymer by streptavidin containing SPA beads. A synthetic template consisting of biotinylated 13mer-oligoG hybridised to polyrC was used as a homopolymer substrate.
a) Genotype 1a C-Terminally Truncated (delta21) Enzyme
HCV RNA Polymerase [Recombinant NS5B with C-terminal 21 amino acid deletion and C-terminal 6His-tag (Ferrari et al. J. Virol, 73(2), 1999, 1649. ‘Characterization of soluble hepatitis C virus RNA-dependent RNA polymerase expressed in Escherichia coli.’) expressed in E. coli and purified to homogeneity] was added to 25 nM final concentration. Polymerase of genotype 1a was from strain H77 (Yanagi, M., Purcell, R. H., Emerson, S. U. & Bukh, J. (1997), Proceedings of the National Academy of Sciences, USA 94, 8738-8743) containing a sequence change from valine to isoleucine at position 180.
Reaction Conditions were 25 nM enzyme, 1.5 μg/ml oligo-rG13/poly-rC and 0.2 μCi α-^33P-GTP in 0.5 μM GTP (20 Ci/mMol), 20 mM Tris pH 7.5, 23 mM NaCl, 3 mM DTT, 5 mM MgCl2, 1 mM MnCl2.
Enzyme was diluted to 500 nM concentration in 20 mM Tris-HCl, pH 7.5, 25 mM NaCl and 3 mM DTT.
4× concentrated assay buffer mix was prepared using 1M Tris-HCl, pH7.5 (1 mL), 5M NaCl (0.25 mL), 1M DTT (0.12 mL) and Water (8.63 mL), Total 10 mL.
2× concentrated first reagent was prepared using 4× concentrated assay buffer mix (5 μL), 40 u/μL RNasin (0.1 μL), 20 μg/mL polyrC/biotinylated-oligoG (1.6 μL), 500 nM enzyme (1 μL) and Water (2.3 μL), Total 10 μl/well.
2× concentrated second reagent was prepared using 1M MgCl2 (0.1 μL), 1M MnCl2 (0.02 μL), 25 μM GTP (0.4 μL), α-[^33P]-GTP (10 μCi/μL, 0.02 μL) and water (9.5 μL), Total 10 μL/well.
The assay was set up using compound (1 μL in 100% DMSO), first reagent (10 μL), and second reagent (10 μL), Total 21 μL.
The reaction was performed in a U-bottomed, white, 96-well plate. The reaction was mixed on a plate-shaker, after addition of the Enzyme, and incubated for 1 h at 22° C. After this time, the reaction was stopped by addition of 60 μL 1.5 mg/ml streptavidin SPA beads (Amersham) in 0.1 M EDTA in PBS. The beads were incubated with the reaction mixture for 1 h at 22° C. after which 100 μL 0.1 M EDTA in PBS was added. The plate was sealed, mixed centrifuged and incorporated radioactivity determined by counting in a Trilux (Wallac) or Topcount (Packard) Scintillation Counter.
After subtraction of background levels without enzyme, any reduction in the amount of radioactivity incorporated in the presence of a compound, compared to that in the absence, was taken as a measure of the level of inhibition. Ten concentrations of compounds were tested in three- or fivefold dilutions. From the counts per minute, percentage of inhibition at highest concentration tested or IC50s for the compounds were calculated using GraFit 3, GraFit 4 or GraFit 5 (Erithacus Software Ltd.) software packages or a data evaluation macro for Excel based on XLFit Software (IDBS).

T1 sequence (P27958 2421-3011 V2599I, form open): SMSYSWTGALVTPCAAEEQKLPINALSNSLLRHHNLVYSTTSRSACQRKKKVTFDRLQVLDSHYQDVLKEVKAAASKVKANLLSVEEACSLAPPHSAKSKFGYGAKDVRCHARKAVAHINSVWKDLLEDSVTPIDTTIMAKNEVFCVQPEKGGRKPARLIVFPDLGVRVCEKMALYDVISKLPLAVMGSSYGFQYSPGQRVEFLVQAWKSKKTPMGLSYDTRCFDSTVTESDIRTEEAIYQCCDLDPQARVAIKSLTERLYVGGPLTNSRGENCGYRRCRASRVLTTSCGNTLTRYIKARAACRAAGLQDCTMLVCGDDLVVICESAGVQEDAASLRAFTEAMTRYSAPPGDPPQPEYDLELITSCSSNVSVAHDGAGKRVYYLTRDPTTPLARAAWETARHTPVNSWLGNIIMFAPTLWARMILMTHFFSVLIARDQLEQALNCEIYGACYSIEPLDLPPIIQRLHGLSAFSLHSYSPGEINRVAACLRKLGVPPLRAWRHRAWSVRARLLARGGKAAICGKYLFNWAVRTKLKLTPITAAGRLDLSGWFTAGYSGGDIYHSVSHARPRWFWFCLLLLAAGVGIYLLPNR

SMILES | IC50 [nM]
COc1cc(C(=O)N2[C@@H](c3nccs3)[C@@H](c3cnccn3)C[C@@]2(CC(C)C)C(=O)O)ccc1C(C)(C)C (racemic) [Compound A, rel-(2S,4S,5R)-2-Isobutyl-1-(4-tert-butyl-3-methoxybenzoyl)-4-(pyrazin-2-yl)-5-(1,3-thiazol-2-yl)pyrrolidine-2-carboxylic acid, reference compound] | > 1000
COc1cc(C(=O)N2[C@@H](c3nccs3)[C@@H](c3cnccn3)C[C@@]2(Cc2ccccn2)C(=O)O)ccc1C(C)(C)C (racemic) [Compound C, rel-(2R,4S,5R)-1-(4-tert-Butyl-3-methoxybenzoyl)-2-(pyridin-2-ylmethyl)-4-(pyrazin-2-yl)-5-(1,3-thiazol-2-yl)pyrrolidine-2-carboxylic acid, reference compound] | 150 to 1000
COc1cc(C(=O)N2[C@@H](c3nccs3)[C@@H](c3cnccn3)C[C@@]2(Cc2c[nH]cn2)C(=O)O)ccc1C(C)(C)C (racemic) [Compound D, rel-(2R,4S,5R)-1-(4-tert-Butyl-3-methoxybenzoyl)-2-(1H-imidazol-4-yl-methyl)-4-(pyrazin-2-yl)-5-(1,3-thiazol-2-yl)-pyrrolidine-2-carboxylic acid, reference compound] | > 1000
COc1cc(C(=O)N2[C@@H](c3cncs3)[C@@H](c3cnccn3)C[C@@]2(CCSC)C(=O)O)ccc1C(C)(C)C (racemic) [Compound E, rel-(2R,4S,5R)-1-(4-tert-Butyl-3-methoxybenzoyl)-2-(2-(methylthio)ethyl)-4-(pyrazin-2-yl)-5-(1,3-thiazol-5-yl)-pyrrolidine-2-carboxylic acid, reference compound] | > 1000
COc1cc(C(=O)N2[C@@H](c3nccs3)[C@@H](c3cnccn3)C[C@@]2(CCS(C)(=O)=O)C(=O)O)ccc1C(C)(C)C (racemic) [Compound F, rel-(2R,4S,5R)-1-(4-tert-Butyl-3-methoxybenzoyl)-2-(2-(methylsulphonyl)ethyl)-4-pyrazin-2-yl-5-(1,3-thiazol-2-yl)-pyrrolidine-2-carboxylic acid, reference compound] | > 1000
COc1cc(C(=O)N2[C@@H](c3nccs3)[C@@H](c3cnccn3)C[C@@]2(Cc2ccccc2)C(=O)O)ccc1C(C)(C)C (racemic) [Compound G, rel-(2R,4S,5R)-1-(4-tert-Butyl-3-methoxybenzoyl)-2-(phenylmethyl)-4-(pyrazin-2-yl)-5-(1,3-thiazol-2-yl)pyrrolidine-2-carboxylic acid, reference compound] | > 1000
COc1cc(C(=O)N2[C@@H](c3nccs3)[C@@H](c3cnccn3)C[C@@]2(Cc2cscn2)C(=O)O)ccc1C(C)(C)C (racemic) [Example 1, rel-(2R,4S,5R)-1-(3-Methoxy-4-tert-butylbenzoyl)-4-(pyrazin-2-yl)-2-(1,3-thiazol-4-ylmethyl)-5-(1,3-thiazol-2-yl)pyrrolidine-2-carboxylic acid] | < 150
COc1cc(C(=O)N2[C@@H](c3nccs3)[C@@H](c3cnccn3)C[C@@]2(Cc2nccs2)C(=O)O)ccc1C(C)(C)C (racemic) [Example 3, rel-(2R,4S,5R)-1-(3-Methoxy-4-tert-butylbenzoyl)-4-(pyrazin-2-yl)-2-(1,3-thiazol-2-ylmethyl)-5-(1,3-thiazol-2-yl)pyrrolidine-2-carboxylic acid] | < 150
COc1cc(C(=O)N2[C@@H](c3ncc(C)s3)[C@@H](c3cnccn3)C[C@@]2(Cc2ccsn2)C(=O)O)ccc1C(C)(C)C (racemic) [Example 5, rel-(2R,4S,5R)-1-(3-Methoxy-4-tert-butylbenzoyl)-5-(5-methyl-1,3-thiazol-2-yl)-4-(pyrazin-2-yl)-2-(1,2-thiazol-3-ylmethyl)pyrrolidine-2-carboxylic acid] | < 150
COc1cc(C(=O)N2[C@@H](c3nccs3)[C@@H](c3cnccn3)C[C@@]2(Cc2ccsn2)C(=O)O)ccc1C(C)(C)C (racemic) [Example 7, rel-(2R,4S,5R)-1-(3-Methoxy-4-tert-butylbenzoyl)-4-(pyrazin-2-yl)-2-(1,2-thiazol-3-ylmethyl)-5-(1,3-thiazol-2-yl)pyrrolidine-2-carboxylic acid] | < 150
COc1cc(C(=O)N2[C@@H](c3ncc(C)s3)[C@@H](c3cnccn3)C[C@@]2(Cn2cccn2)C(=O)O)ccc1C(C)(C)C (racemic) [Example 9, rel-(2R,4S,5R)-1-(3-Methoxy-4-tert-butylbenzoyl)-5-(5-methyl-1,3-thiazol-2-yl)-4-(pyrazin-2-yl)-2-(1H-pyrazol-1-ylmethyl)pyrrolidine-2-carboxylic acid] | < 150
COc1cc(C(=O)N2[C@@H](c3nccs3)[C@@H](c3cnccn3)C[C@@]2(Cn2cccn2)C(=O)O)ccc1C(C)(C)C (racemic) [Example 11, rel-(2R,4S,5R)-1-(3-Methoxy-4-tert-butylbenzoyl)-4-(pyrazin-2-yl)-2-(1H-pyrazol-1-ylmethyl)-5-(1,3-thiazol-2-yl)pyrrolidine-2-carboxylic acid] | < 150
COc1cc(C(=O)N2[C@@H](c3ncc(C)s3)[C@@H](c3cnccn3)C[C@@]2(Cc2nccs2)C(=O)O)ccc1C(C)(C)C (racemic) [Example 13, rel-(2R,4S,5R)-1-(3-Methoxy-4-tert-butylbenzoyl)-5-(5-methyl-1,3-thiazol-2-yl)-4-(pyrazin-2-yl)-2-(1,3-thiazol-2-ylmethyl)pyrrolidine-2-carboxylic acid] | < 150
COc1cc(C(=O)N2[C@@H](c3ncc(C)s3)[C@@H](c3cnccn3)C[C@@]2(Cc2cscn2)C(=O)O)ccc1C(C)(C)C (racemic) [Example 15, rel-(2R,4S,5R)-1-(3-Methoxy-4-tert-butylbenzoyl)-5-(5-methyl-1,3-thiazol-2-yl)-4-(pyrazin-2-yl)-2-(1,3-thiazol-4-ylmethyl)pyrrolidine-2-carboxylic acid] | < 150
COc1cc(C(=O)N2[C@@H](c3nccs3)[C@@H](c3cnccn3)C[C@@]2(CC(C)C)C(=O)O)ccc1C(C)(C)C (single isomer, unassigned; enantiomer a) [Compound B, reference compound] | > 1000
COc1cc(C(=O)N2[C@@H](c3nccs3)[C@@H](c3cnccn3)C[C@@]2(Cc2cscn2)C(=O)O)ccc1C(C)(C)C (single isomer, unassigned; enantiomer a) [Example 2] | < 150
COc1cc(C(=O)N2[C@@H](c3nccs3)[C@@H](c3cnccn3)C[C@@]2(Cc2nccs2)C(=O)O)ccc1C(C)(C)C (single isomer, unassigned; enantiomer a) [Example 4] | < 150
COc1cc(C(=O)N2[C@@H](c3ncc(C)s3)[C@@H](c3cnccn3)C[C@@]2(Cc2ccsn2)C(=O)O)ccc1C(C)(C)C (single isomer, unassigned; enantiomer a) [Example 6] | < 150
COc1cc(C(=O)N2[C@@H](c3nccs3)[C@@H](c3cnccn3)C[C@@]2(Cc2ccsn2)C(=O)O)ccc1C(C)(C)C (single isomer, unassigned; enantiomer a) [Example 8] | < 150
COc1cc(C(=O)N2[C@@H](c3ncc(C)s3)[C@@H](c3cnccn3)C[C@@]2(Cn2cccn2)C(=O)O)ccc1C(C)(C)C (single isomer, unassigned; enantiomer a) [Example 10] | < 150
COc1cc(C(=O)N2[C@@H](c3nccs3)[C@@H](c3cnccn3)C[C@@]2(Cn2cccn2)C(=O)O)ccc1C(C)(C)C (single isomer, unassigned; enantiomer a) [Example 12] | < 150
COc1cc(C(=O)N2[C@@H](c3ncc(C)s3)[C@@H](c3cnccn3)C[C@@]2(Cc2nccs2)C(=O)O)ccc1C(C)(C)C (single isomer, unassigned; enantiomer a) [Example 14] | < 150
